Reference: patent US20240190847A1, “INDOLINE DERIVATIVES AS DDR1 AND DDR2 INHIBITORS” (CHIESI FARMACEUTICI S.P.A., priority 2021, published 2024)
Read-outs that look alike come from different tables or passages of the source.

Columns and labels:
DDR1 = DDR1 LanthaScreen Europium Kinase Binding assay
Method: (§1) DDR1 and DDR2 binding assays were performed using Life Technologies LanthaScreen™ Europium Kinase Binding assay. The compounds were incubated with 5 nM DDR1 (Carna Biosciences) or 5 nM DDR2 (Life Technologies) for 1 hour at room temperature in white 384-well OptiPlate (PerkinElmer), containing 20 nM or 10 nM Kinase Tracer 178 respectively and 2 nM Europium labelled anti-GST antibody (Life Technologies) in assay buffer (50 mM HEPES pH 7.5, 10 mM MgCl2, 1 mM EGTA and 0.01% BRIJ35). The ratio of fluorescence emission 665 nm/615 nm after excitation at 340 nm was obtained using the Tecan Spark 20M plate reader. IC50 values were determined in GraphPad Prism 8.0 software, using 4 parameter model: log(inhibitor) vs. response. IC50 values were converted in Ki using the Cheng-Prusoff equation (Ki=IC50/(1+[Tracer]/Kd).

DDR2 [1] = assay: DDR2 LanthaScreen Europium Kinase Binding assay
Method: as §1

DDR1 receptor = assay: DDR1 cell based assay (PathHunter U2OS DDR1); conditions: U2OS-DDR1 cells, bovine Type II Collagen 20 μg/ml stimulation
Method: The inhibition of DDR1 receptor activation by compounds was evaluated by PathHunter® U2OS DDR1 assay (Eurofins DiscoverX), according to the manufacturer's instructions. Briefly, U2O5-DDR1 cells were seeded in white 384-well plates at a density of 5000 cells/well and incubated for 2 hours at 37° C. and 5% CO2. Cells were then treated with compounds at different concentrations and incubated for 30 minutes, before stimulation with bovine Type II Collagen 20 μg/ml and incubation overnight at 37° C. and 5% CO2. PathHunter Detection Reagents were prepared according to the protocol provided by DiscoverX and 20 μl/well of this mix were added to each well. After incubating the plates for 1 hour at room temperature in the dark, luminescence signal was acquired with a plate reader. Raw data were normalized to vehicle control (0% for normalization) and positive control (100% for normalization; cells treated with 20 μg/ml collagen II) and IC50 parameters were calculated in GraphPad Prism 8.0 software, using sigmoidal dose-response curve fitting with variable slope.

DDR2 [2] = assay: DDR2 cell based assay (phospho-ELISA in HEK293T-DDR2 cells); design: species or system human; conditions: DDR2 phosphorylation, bovine Type II Collagen 50 μg/ml, read-out: IC50DDR2
Method: The inhibition of DDR2 phosphorylation by compounds was evaluated in HEK293T-DDR2 recombinant cells by phospho-ELISA assay. Briefly, HEK293T-DDR2 cells were seeded in poly-D-lysine-coated 24-well plates at a density of 250.000 cells/well and incubated for 1.5 hours at 37° C. and 5% CO2 in DMEM+10% FBS. After that, the medium was changed to serum-free DMEM and cells were incubated for 3 hours. Then. test compounds were added at different concentrations 30 minutes before stimulation with bovine Type II Collagen at 50 μg/ml for further 3 hours. For DDR2 phospho-ELISA assay (DuoSet IC Human Phospho-DDR2; R&D Systems), protein extracts were obtained by adding 60 μl/well of lysis buffer prepared according to the manufacturer's instructions.
Protein concentration in the samples was determined by BCA assay and the levels of phospho-DDR2 were determined following R&D Systems indications. Raw data were normalized to maximal inhibition control (0% for normalization) and positive control (100% for normalization; cells treated with 20 μg/ml collagen II) and IC50 parameters were calculated in GraphPad Prism 8.0 software, using sigmoidal dose-response curve fitting with variable slope.

[3] = 5 nM DDR1, 1 hour at room temperature, Ki from IC50 by Cheng-Prusoff, read-out: Ki DDR1
[4] = 5 nM DDR2, 1 hour at room temperature, Ki from IC50 by Cheng-Prusoff, read-out: Ki DDR2

Structure (SMILES) | Ki (DDR1; [3]) [nM] | Ki (DDR2 [1]; [4]) [nM] | IC50 (DDR1 receptor) [nM] | IC50 (DDR2 [2]) [nM] | Ki (DDR1; read-out: DDR1 Ki) [nM] | Ki (DDR2 [1]; read-out: DDR2 Ki) [nM]
Cc1cn(-c2cc(NC(=O)c3ccc4c(c3)N(Cc3cncnc3)CC4)cc(C(F)(F)F)c2)cn1 [Example 1, N-(3-(4-methyl-1H-imidazol-1-yl)-5-(trifluoromethyl)phenyl)-1-(pyrimidin-5-ylmethyl)indoline-6-carboxamide] | < 25 | < 25 | 50 to 80 | – | – | –
CNC(=O)c1cc(CN2CCc3ccc(C(=O)Nc4cc(-n5cnc(C)c5)cc(C(F)(F)F)c4)cc32)ccn1 [Example 2, N-(3-(4-methyl-1H-imidazol-1-yl)-5-(trifluoromethyl)phenyl)-1-((2-(methylcarbamoyl)pyridin-4-yl)methyl)indoline-6-carboxamide] | < 25 | < 25 | 25 to 50 | – | – | –
CN1CCN(Cc2cc(NC(=O)c3ccc4c(c3)N(Cc3cncnc3)CC4)cc(C(F)(F)F)c2)CC1 [Example 3, N-(3-((4-methylpiperazin-1-yl)methyl)-5-(trifluoromethyl)phenyl)-1-(pyrimidin-5-ylmethyl)indoline-6-carboxamide] | < 25 | < 25 | 50 to 80 | – | – | –
CN1CCN(Cc2cc(C(=O)Nc3ccc4c(c3)N(Cc3cnc(Nc5cnn(C)c5)nc3)CC4)cc(C(F)(F)F)c2)CC1 [Example 4, N-(1-((2-((1-methyl-1H-pyrazol-4-yl)amino)pyrimidin-5-yl)methyl)indolin-6-yl)-3-((4-methylpiperazin-1-yl)methyl)-5-(trifluoromethyl)benzamide] | < 25 | < 25 | < 25 | < 25 | – | –
CN1CCN(Cc2cc(C(=O)Nc3ccc4c(c3)N(Cc3nccnc3N)CC4)cc(C(F)(F)F)c2)CC1 [Example 5, N-(1-((3-aminopyrazin-2-yl)methyl)indolin-6-yl)-3-((4-methylpiperazin-1-yl)methyl)-5-(trifluoromethyl)benzamide] | < 25 | < 25 | < 25 | 25 to 50 | – | –
CNC(=O)c1cc(CN2CCc3ccc(NC(=O)c4cc(-n5cnc(C)c5)cc(C(F)(F)F)c4)cc32)ccn1 [Example 6, N-methyl-4-((6-(3-(4-methyl-1H-imidazol-1-yl)-5-(trifluoromethyl)benzamido)indolin-1-yl)methyl)picolinamide] | < 25 | < 25 | 25 to 50 | – | – | –
CN1CCN(c2cncc(CN3CCc4ccc(C(=O)Nc5cccc(C(F)(F)F)c5)cc43)c2)CC1=O [Example 7, 1-((5-(4-methyl-3-oxopiperazin-1-yl)pyridin-3-yl)methyl)-N-(3-(trifluoromethyl)phenyl)indoline-6-carboxamide] | < 25 | < 25 | < 25 | – | – | –
CN1CCN(Cc2ccc(NC(=O)c3ccc4c(c3)N(Cc3cnc(N)nc3)CC4)cc2C(F)(F)F)CC1 [Example 8, 1-((2-aminopyrimidin-5-yl)methyl)-N-(4-((4-methylpiperazin-1-yl)methyl)-3-(trifluoromethyl)phenyl)indoline-6-carboxamide] | < 25 | 25 to 50 | < 25 | – | – | –
CN1CCN(Cc2ccc(NC(=O)c3ccc4c(c3)N(Cc3ccc(N)nc3)CC4)cc2C(F)(F)F)CC1 [Example 9, 1-((6-aminopyridin-3-yl)methyl)-N-(4-((4-methylpiperazin-1-yl)methyl)-3-(trifluoromethyl)phenyl)indoline-6-carboxamide] | < 25 | 25 to 50 | < 25 | – | – | –
CN1CCN(Cc2ccc(NC(=O)c3ccc4c(c3)N(Cc3cncnc3N)CC4)cc2C(F)(F)F)CC1 [Example 10, 1-((4-aminopyrimidin-5-yl)methyl)-N-(4-((4-methylpiperazin-1-yl)methyl)-3-(trifluoromethyl)phenyl)indoline-6-carboxamide] | < 25 | < 25 | < 25 | – | – | –
CN1CCN(Cc2ccc(NC(=O)c3ccc4c(c3)N(Cc3cnc(N)cn3)CC4)cc2C(F)(F)F)CC1 [Example 11, 1-((5-aminopyrazin-2-yl)methyl)-N-(4-((4-methylpiperazin-1-yl)methyl)-3-(trifluoromethyl)phenyl)indoline-6-carboxamide] | < 25 | < 25 | < 25 | – | – | –
CNc1ncc(CN2CCc3ccc(C(=O)Nc4ccc(CN5CCN(C)CC5)c(C(F)(F)F)c4)cc32)cn1 [Example 12, 1-((2-(methylamino)pyrimidin-5-yl)methyl)-N-(4-((4-methylpiperazin-1-yl)methyl)-3-(trifluoromethyl)phenyl)indoline-6-carboxamide] | < 25 | 25 to 50 | < 25 | – | – | –
CC(=O)Nc1ncc(CN2CCc3ccc(C(=O)Nc4ccc(CN5CCN(C)CC5)c(C(F)(F)F)c4)cc32)cn1 [Example 15, 1-((2-acetamidopyrimidin-5-yl)methyl)-N-(4-((4-methylpiperazin-1-yl)methyl)-3-(trifluoromethyl)phenyl)indoline-6-carboxamide] | < 25 | – | < 25 | – | – | –
CN1CCN(Cc2ccc(NC(=O)c3ccc4c(c3)N(Cc3cncc(C(N)=O)c3)CC4)cc2C(F)(F)F)CC1 [Example 17, 1-((5-carbamoylpyridin-3-yl)methyl)-N-(4-((4-methylpiperazin-1-yl)methyl)-3-(trifluoromethyl)phenyl)indoline-6-carboxamide] | < 25 | < 25 | 25 to 50 | – | – | –
COCCn1cc(Nc2ncc(CN3CCc4ccc(C(=O)Nc5cc(CN6CCN(C)CC6)cc(C(F)(F)F)c5)cc43)cn2)cn1 [Example 19, 1-((2-((1-(2-methoxyethyl)-1H-pyrazol-4-yl)amino)pyrimidin-5-yl)methyl)-N-(3-((4-methylpiperazin-1-yl)methyl)-5-(trifluoromethyl)phenyl)indoline-6-carboxamide] | < 25 | < 25 | < 25 | – | – | –
CN(C)CCn1cc(Nc2ncc(CN3CCc4ccc(C(=O)Nc5cc(CN6CCN(C)CC6)cc(C(F)(F)F)c5)cc43)cn2)cn1 [Example 20, 1-((2-((1-(2-(dimethylamino)ethyl)-1H-pyrazol-4-yl)amino)pyrimidin-5-yl)methyl)-N-(3-((4-methylpiperazin-1-yl)methyl)-5-(trifluoromethyl)phenyl)indoline-6-carboxamide] | < 25 | < 25 | 50 to 80 | – | – | –
CN1CCN(Cc2cc(C(=O)Nc3ccc4c(c3)N(Cc3cnc(N)nc3)CC4)cc(C(F)(F)F)c2)CC1 [Example 21, N-(1-((2-aminopyrimidin-5-yl)methyl)indolin-6-yl)-3-((4-methylpiperazin-1-yl)methyl)-5-(trifluoromethyl)benzamide] | < 25 | < 25 | 50 to 80 | – | – | –
CN1CCN(Cc2cc(NC(=O)c3ccc4c(c3)N(c3cncnc3)CC4)cc(C(F)(F)F)c2)CC1 [Example C1, N-(3-((4-methylpiperazin-1-yl)methyl)-5-(trifluoromethyl)phenyl)-1-(pyrimidin-5-yl)indoline-6-carboxamide, reference compound] | – | – | – | – | 30000 | 50000
Cc1cn(-c2cc(NC(=O)c3ccc4c(c3)N(c3cncnc3)CC4)cc(C(F)(F)F)c2)cn1 [Example C2, N-(3-(4-methyl-1H-imidazol-1-yl)-5-(trifluoromethyl)phenyl)-1-(pyrimidin-5-yl)indoline-6-carboxamide, reference compound] | – | – | – | – | 58000 | 4000
CN1CCN(Cc2cc(C(=O)Nc3ccc4c(c3)N(c3cncnc3)CC4)cc(C(F)(F)F)c2)CC1 [Example C3, 3-((4-methylpiperazin-1-yl)methyl)-N-(1-(pyrimidin-5-yl)indolin-6-yl)-5-(trifluoromethyl)benzamide, reference compound] | – | – | – | – | 58000 | 58000
